Results filed as inconclusive are left out. Calls of active or inactive are those of the source. No rule for the calls is given here.
System: Mycobacterium tuberculosis non-replicating, growth inhibition
Test: growth inhibition of non-replicating M. tuberculosis (AID 488890)

Row | SMILES | IC50
1 | CCc1ccc(N2C(=O)NC(=O)/C(=C\C=C\c3ccco3)C2=O)cc1 | 10.9 µM (inactive)
2 | c1ccc(Nc2nc(-c3ccccn3)cs2)cc1 | 2.66 µM
3 | O=Cc1c(NCc2ccco2)nc2ccccn2c1=O | 4.93 µM
4 | O=C(N/N=C/c1ccc([N+](=O)[O-])s1)c1cccc(Br)c1 | 4.95 µM
5 | CC1CCN(CCOCCSc2ccc(Cl)cc2)CC1 | 19.7 µM (inactive)
6 | Cc1ccc(NC(=O)c2ccc([N+](=O)[O-])o2)c(C)c1 | 8.9 µM
7 | CN(C)S(=O)(=O)c1ccc(C(=O)Oc2ccccc2)cc1 | 2.41 µM
8 | N#Cc1nc(-c2cccs2)oc1NCCc1ccccc1 | 4.77 µM
9 | COc1ccc(CNC(=O)c2cc3cccc(O)c3oc2=N)cc1 | 14.3 µM (inactive)
10 | Cc1[nH]nc2c1C(c1ccc(-c3ccc(Cl)cc3)o1)C(C#N)=C(N)O2 (stereo not drawn) | 2.24 µM
11 | c1ccc(-c2nnc(SCc3cn4ccsc4n3)o2)cc1 | 11.1 µM (inactive)
12 | CC1=NN(C(=O)c2ccc(Br)cc2)C(O)(c2ccccc2)C1 (stereo not drawn) | 0.47 µM
13 | Clc1ccc2c(N3CCCC3)ccnc2c1 | 16.4 µM (inactive)
14 | Cc1ccn2nc(S(=O)(=O)Nc3c(F)cccc3F)nc2n1 | 17.5 µM (inactive)
15 | Cc1ccc(C(=O)COC(=O)c2cccs2)cc1 | 11 µM (inactive)
16 | CC(NC(=O)c1cc2cc(Br)ccc2oc1=N)c1ccccc1 (stereo not drawn) | 6.97 µM
17 | CC1CCN(C(=O)c2ccc(-c3ccccc3Cl)o2)CC1 | 5.32 µM
18 | C=CCc1ccc(OCC(O)CN2CCN(Cc3ccc(Cl)cc3)CC2)c(OC)c1 (stereo not drawn) | 15.7 µM (inactive)
19 | CC1=NN(C(=O)COc2ccccc2)C(O)(c2ccccc2)C1 (stereo not drawn) | 1.36 µM
20 | Cc1ccc(OCC(=O)OCc2c(C)noc2C)cc1C | 11.7 µM (inactive)
21 | Cc1cc(C)cc(OC(=O)CCN2C(=O)c3ccccc3C2=O)c1 | 19.4 µM (inactive)
22 | CCC(C)c1ccc(O)c(/C=N/O)c1 (stereo not drawn) | 2.43 µM
23 | COc1ccc(C(=O)COC(=O)c2ccc(Cl)nc2)c(OC)c1 | 10.7 µM (inactive)
24 | Cc1ccc(C(=O)COC(=O)CCc2ccc(S(=O)(=O)N3CCCCC3)cc2)cc1 | 23 µM (inactive)

Row | SMILES | IC50
25 | O=C(O)c1ccc(-n2nc(C(F)(F)F)c3c2CCCC3)cc1 | 34.2 µM (inactive)
26 | CC(OC(=O)c1ccc2c(=O)n3c(nc2c1)CCCCC3)C(=O)Nc1ccc(Cl)cn1 (stereo not drawn) | 3.69 µM
27 | CCCOC(=O)c1ccc(OC(=O)c2ccco2)cc1 | 21.9 µM (inactive)
28 | O=C(Nc1nc2ccccc2n1CCN1CCCC1)C1CCCCC1 | 17.8 µM (inactive)
29 | FC(F)c1nnc2ccc(Cl)nn12 | 5.9 µM
30 | COc1ccccc1N=Cc1nc(-c2ccccc2)oc1OC(C)=O | 19.6 µM (inactive)
31 | O=C1c2cc([N+](=O)[O-])cc3cc([N+](=O)[O-])cc(c23)C(=O)N1c1ccccn1 | 3.46 µM
32 | O=C(NNC(=O)C12CC3CC(CC(C3)C1)C2)c1cnccn1 | 32.2 µM (inactive)
33 | CCOc1ccc2nc(NC(=O)c3cnc(C)cn3)sc2c1 | 4.32 µM
34 | Nc1cccn2c(-c3ccc(Cl)cc3)cnc12 | 8.34 µM
35 | Cc1cc(C)n(-c2nc(NCCN(C)C)c3c4c(sc3n2)CCCC4)n1 | 9.66 µM
36 | COc1ccc(/C=C/c2nc3ccccc3c(=O)o2)cc1 | 2.74 µM
37 | Cc1ccc(NCCC(=O)c2cccs2)cc1C | 6.07 µM
38 | CCOC(=O)CCNC(=O)c1ccc2nc(C3CCCCC3)oc2c1 | 28.8 µM (inactive)
39 | CCOC(=O)C1CSC(CC(=O)Nc2ccc(Cl)c(Cl)c2)C(=O)N1 (stereo not drawn) | 10.7 µM (inactive)
40 | CC1=NN(C(=O)c2ccccc2Cl)C(O)(c2ccccc2)C1 (stereo not drawn) | 1.43 µM
41 | O=C(NCCC1=CCCCC1)c1ccc(F)cc1 | 1.36 µM
42 | O=c1c2c(nc3c(-c4ccccc4)c[nH]n13)CCCC2 | 21.1 µM (inactive)
43 | COc1ccccc1-c1nnc(-c2ccc(C)cc2)o1 | 6.42 µM
44 | Oc1cc(NCc2cccnc2)ccc1-c1nc2ccccc2o1 | 47.1 µM (inactive)
45 | COc1ccc(OCCOC(=O)CCS(=O)(=O)c2ccc(C)cc2)cc1 | 24.1 µM (inactive)
46 | CCOC(=O)C1CCN(Cc2ccc(-c3ccccc3)cc2)CC1 | 44 µM (inactive)
47 | CN(O)/C=c1/ccc2c(n1)C(=O)C=CC=2 | 1.92 µM
48 | O=C(N/N=C\C=C\c1ccco1)c1cncc(Br)c1 | 34.4 µM (inactive)

Row | SMILES | IC50
49 | Clc1ccccc1OCc1nnc(-c2ccccc2)o1 | 4.35 µM
50 | CCCCCn1c(=O)c(C(=O)Nc2cnccn2)c(O)c2ccccc21 | 2.55 µM
51 | Fc1ccc(-c2nnc(CSc3nnc(-c4cccs4)o3)o2)cc1 | 3.68 µM
52 | Cc1ccc(-c2nn(-c3ccccc3)cc2/C=N/NC(=O)c2ccncc2)o1 | 6.11 µM
53 | CCCC(=O)OCCNc1cc(Sc2nccn2C)c2nonc2c1[N+](=O)[O-] | 2.57 µM
54 | O=C(COC(=O)COc1ccc(Nc2ccccc2)cc1)NCc1ccco1 | 10.3 µM (inactive)
55 | O=C(COc1ccc(Nc2ccccc2)cc1)OCC(=O)N1CCCCC1 | 6.24 µM
56 | CCn1nnc(NC(=O)c2ccc([N+](=O)[O-])o2)n1 | 9.04 µM
57 | Cc1nc(Cl)nc(N(C)c2ccccc2)c1[N+](=O)[O-] | 9.3 µM
58 | CCC(C)(C)NC(=O)c1ccc(Br)o1 | 18.6 µM (inactive)
59 | CC(/C=C/c1ccccc1F)=N\NC(=O)c1ccccc1 | 3.87 µM
60 | O=C(N/N=C/c1coc2ccccc2c1=O)c1ccc(Cl)cc1 | 0.97 µM
61 | COC(=O)/C(=C1/Oc2cc(C)oc(=O)c2S1)C(F)(F)F | < 0.1 µM
62 | Cc1cc(S(=O)(=O)c2ccc([N+](=O)[O-])cn2)ccc1Br | 0.15 µM
63 | COc1ccc(-c2nnc(NC(=O)C3=COCCO3)o2)cc1 | 27.1 µM (inactive)
64 | CCOC(=O)c1cnc(Nc2nc3ccccc3o2)nc1CSC(=S)N1CCCCC1 | 1.49 µM
65 | Clc1cccc(CNCCNCc2cccc(Cl)c2)c1 | 12.1 µM (inactive)
66 | O=C(COc1ccc([N+](=O)[O-])cc1)NNC(=O)c1cccs1 | 28.1 µM (inactive)
67 | CC(C)(C)Nc1nc(NC(C)(C)C)nc(-n2ccnc2)n1 | 23 µM (inactive)
68 | CC(=O)Nc1nc2ccccc2n1Cc1ccc(Cl)cc1 | 1.93 µM
69 | O=C(N/N=C1\CCCc2c1[nH]c1ccc(Cl)cc21)c1ccncc1 | 1.78 µM
70 | Cn1ccsc1=NC(=O)c1ccccc1F | 22.4 µM (inactive)
71 | CCN(CC)c1ccc2cc(C(=O)NCc3ccc(F)cc3)c(=N)oc2c1 | 1.62 µM
72 | CCn1nnc(NC(=O)COc2ccc(C3CCCCC3)cc2)n1 | 1.5 µM

Row | SMILES | IC50
73 | COc1ccc(Nc2cc(C)nc(-n3nc(C)cc3C)n2)cc1 | 4.02 µM
74 | CCOC(=O)COc1ccc2c(c1)c(C(C)=O)c(C)n2Cc1ccccc1 | 4.62 µM
75 | Cc1ccccc1OCC(=O)OCC(=O)c1ccc[nH]1 | 21.2 µM (inactive)
76 | O=C(COc1ccccc1)Nc1ccc(F)cc1 | 8.5 µM
77 | Cc1cc(Cl)ccc1NNC(=O)c1cccs1 | 14.5 µM (inactive)
78 | O=C(COC(=O)c1cc(Br)ccc1Cl)NC1CCCC1 | 4.84 µM
79 | COc1ccc(C(=O)COC(=O)c2ccc([N+](=O)[O-])s2)cc1OC | 2.8 µM
80 | CCOc1ccc2ccccc2c1/C=N/NC(=O)c1ccncc1 | 0.58 µM
81 | CC(C)OC(=O)COc1ccc(-c2ccccc2)cc1 | 3.25 µM
82 | O=C(Oc1ccccc1)c1cc2ccccc2o1 | 6.73 µM
83 | O=C1CC(N2CCN(Cc3ccccc3)CC2)C(=O)N1CCc1ccccc1 (stereo not drawn) | 22.3 µM (inactive)
84 | CSC1=N/C(=C\c2ccc(Br)o2)C(=O)S1 | 28.7 µM (inactive)
85 | CC(C)(C)/C(O)=C/c1nc2ccccc2oc1=O | 6.85 µM
86 | O=C1CSC(=S)N1Cc1cccnc1 | 6.18 µM
87 | CCCn1nnc(NC(=O)COc2ccc(CC)cc2)n1 | 17.9 µM (inactive)
88 | C/C(=N\NC(=O)c1ccc([N+](=O)[O-])c(C)c1)c1ccccc1Cl | 12.2 µM (inactive)
89 | Cc1ccc(/C=C2\SC(N3CCCC3)=NC2=O)cc1 | 6.15 µM
90 | Cc1ccc(-c2nnc(COC(=O)c3cccs3)o2)cc1 | 13.8 µM (inactive)
91 | CCOC(=O)c1nc2sc3c(c2c(=O)[nH]1)CCC(C)C3 (stereo not drawn) | < 0.1 µM
92 | COC(=O)COc1ccc2c(=O)c(-c3ccccc3)coc2c1 | < 0.1 µM
93 | Cc1ccc2c(c1)C(=O)C(=O)N2CCCOc1ccccc1 | 22.9 µM (inactive)
94 | COc1ccc(-c2nc(C=O)cs2)cc1 | 5.84 µM
95 | CCOc1cc(-c2nnc(NC(=O)c3ccco3)o2)cc(OCC)c1OCC | 21.6 µM (inactive)
96 | O=C(CCS(=O)(=O)c1ccccc1)Nc1nnc(-c2ccco2)o1 | 7.69 µM

Row | SMILES | IC50
97 | Cc1cc(C)n(-c2ccc(C(=O)Oc3ccc4c(c3)OCO4)cc2)n1 | 11.9 µM (inactive)
98 | O=C(NCC(c1cccs1)N1CCOCC1)c1cc([N+](=O)[O-])cc([N+](=O)[O-])c1 (stereo not drawn) | 2.96 µM
99 | COc1cccc(C(=O)N/N=C(/c2ccccc2)c2ccccn2)c1 | 4.04 µM
100 | O=C(COC(=O)CCc1c[nH]c2ccccc12)Nc1ccc([N+](=O)[O-])cc1 | 9.82 µM
101 | Cc1nc2ccc(Cl)cc2nc(C)/c1=N\O | 14.4 µM (inactive)
102 | COc1ccc2nc(C)cc(N/N=C/c3ccccc3)c2c1 | 2.6 µM
103 | CN(Cc1ccccc1)C(=O)c1ccc([N+](=O)[O-])o1 | 3.29 µM
104 | COc1ccc(NC(=O)Nc2ccc(O)c3ccccc23)cc1 | 3.7 µM
105 | CCCN1C(=O)S/C(=C\c2ccc(N3CCOCC3)o2)C1=O | 25.2 µM (inactive)
106 | COC(=O)C1CC(=O)N(c2ccc(OCc3ccccc3Cl)cc2)C1 (stereo not drawn) | 3.53 µM
107 | CCn1c(/C=N/NC(=O)c2ccc(OC)cc2)nc2ccccc21 | 7.78 µM
108 | CCOC(=O)CCS(=O)(=O)c1nc(-c2ccccc2)cc(C(F)(F)F)n1 | 0.99 µM
109 | COc1ccccc1/C=N\Nc1cc(C)nc(-n2nc(C)cc2C)n1 | 1.77 µM
110 | CCNC(=O)NC(=O)C(C)OC(=O)CCCSc1nc2ccccc2s1 (stereo not drawn) | 4.68 µM
111 | O=C(NCCSc1ccccc1)c1ccc(Br)cc1 | 32.1 µM (inactive)
112 | COc1ccc(-c2cc(=O)oc(-c3cccc(C)c3)n2)cc1 | 8.24 µM
113 | Cc1ccc(N/N=C2\CS(=O)(=O)N(C)c3ccsc32)cc1 | 0.31 µM
114 | Cn1c(=O)c2c(=O)cc(NNC(=O)CC#N)[nH]c2n(C)c1=O | 26.9 µM (inactive)
115 | Cc1ccnc(NC(=O)COc2ccc3c(c2)CCC3)c1 | 1.7 µM
116 | O=C(Cc1ccccc1)N/N=C/c1ccc([N+](=O)[O-])s1 | 14 µM (inactive)
117 | CSc1ccc(COC(=O)CCS(=O)(=O)c2ccc(C)cc2)cc1 | 19.2 µM (inactive)
118 | O=C(OCC(=O)N1CCCC1)c1cc(Br)ccc1Cl | 6.94 µM
